Test results from US10259811B2, “Tank-binding kinase inhibitor compounds” (Gilead Sciences, Inc., priority 2014, dated 2019).

Tests used:
[1] = target: TBK1 (Homo sapiens (Human), UniProt Q9UHD2); assay: TR-FRET enzymatic assay, phosphorylation of biotinylated serine/threonine peptide substrate (TBK1); settings: read-out: TBK1-IC50; full length recombinant TBK1, 2×Km ATP (40-80 μM), 1 μM peptide, 240 minutes at 25° C.; geometric mean of minimum four determinations
TBK1, sequence (Q9UHD2 whole entry): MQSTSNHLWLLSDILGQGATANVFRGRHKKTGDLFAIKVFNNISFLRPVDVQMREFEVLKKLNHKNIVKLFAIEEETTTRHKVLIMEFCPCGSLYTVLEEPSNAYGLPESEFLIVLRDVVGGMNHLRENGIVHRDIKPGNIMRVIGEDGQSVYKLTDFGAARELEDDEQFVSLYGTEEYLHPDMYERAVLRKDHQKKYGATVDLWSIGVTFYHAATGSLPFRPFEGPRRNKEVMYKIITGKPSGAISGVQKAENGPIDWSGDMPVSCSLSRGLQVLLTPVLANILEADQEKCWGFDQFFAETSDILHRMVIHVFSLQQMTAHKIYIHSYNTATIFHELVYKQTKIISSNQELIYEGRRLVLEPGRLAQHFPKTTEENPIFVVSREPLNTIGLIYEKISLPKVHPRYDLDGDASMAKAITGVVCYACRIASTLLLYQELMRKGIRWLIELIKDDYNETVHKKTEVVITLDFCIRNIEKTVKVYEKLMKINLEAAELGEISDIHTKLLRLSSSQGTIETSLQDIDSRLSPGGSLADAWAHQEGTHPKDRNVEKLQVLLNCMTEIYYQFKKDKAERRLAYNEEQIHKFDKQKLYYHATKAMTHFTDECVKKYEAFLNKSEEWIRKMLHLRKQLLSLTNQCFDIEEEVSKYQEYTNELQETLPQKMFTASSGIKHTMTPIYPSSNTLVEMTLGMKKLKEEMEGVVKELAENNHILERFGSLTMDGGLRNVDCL
Experimental: Enzymatic activity of IKKε and TBK1 was measured using a homogeneous time resolved fluorescence resonance energy transfer (TR-FRET) assay that monitors enzyme dependent phosphorylation of a biotinylated serine/threonine peptide substrate. […] TBK1 and IKKε were expressed and purified as full length recombinant proteins. Detection reagents for the assay were purchased from Cisbio. […] After an assay reaction time of 240 minutes at 25° C., reactions were terminated with EDTA.
Amount of phosphorylated peptide was determined by the addition of 125 nM streptavidin XL665 and europium cryptate labeled anti-phospho monoclonal antibody and the resulting TR-FRET signal was recorded on an Envision plate reader (Ex: 340 nm; Em: 615/665 nm; 100 μs delay and 200 μs read window). […] All IC50 values represent geometric mean values of a minimum of four determinations.

[2] = target: IKKε (Homo sapiens (Human), UniProt Q14164); assay: TR-FRET enzymatic assay, phosphorylation of biotinylated serine/threonine peptide substrate (IKKε); assay type: biochemical; settings: full length recombinant IKKε at 0.3 nM, 2×Km ATP (40-80 μM), 1 μM peptide, 240 minutes at 25° C.; geometric mean of minimum four determinations
IKKε, sequence (Q14164 whole entry): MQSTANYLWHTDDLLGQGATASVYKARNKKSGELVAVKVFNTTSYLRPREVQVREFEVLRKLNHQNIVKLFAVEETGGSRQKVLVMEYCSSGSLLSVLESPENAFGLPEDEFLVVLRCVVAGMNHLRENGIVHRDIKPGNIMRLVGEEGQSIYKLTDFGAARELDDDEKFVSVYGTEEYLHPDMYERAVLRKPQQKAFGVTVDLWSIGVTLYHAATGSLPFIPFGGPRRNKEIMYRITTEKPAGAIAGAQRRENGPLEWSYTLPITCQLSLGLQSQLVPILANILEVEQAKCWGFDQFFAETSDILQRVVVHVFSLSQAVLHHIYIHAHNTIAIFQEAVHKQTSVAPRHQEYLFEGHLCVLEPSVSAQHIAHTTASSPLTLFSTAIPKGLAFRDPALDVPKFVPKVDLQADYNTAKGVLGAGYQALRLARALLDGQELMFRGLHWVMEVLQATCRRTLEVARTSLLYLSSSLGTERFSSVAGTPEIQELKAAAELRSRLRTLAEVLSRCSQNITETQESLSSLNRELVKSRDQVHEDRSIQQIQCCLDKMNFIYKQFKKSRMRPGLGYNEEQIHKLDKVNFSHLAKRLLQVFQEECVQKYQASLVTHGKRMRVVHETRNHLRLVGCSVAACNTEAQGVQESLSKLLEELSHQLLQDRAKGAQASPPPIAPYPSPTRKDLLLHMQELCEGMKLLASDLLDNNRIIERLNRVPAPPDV
Excerpt: Biological Assay for TBK1 and IKKε:

Row | Compound | IC50 [1] | IC50 [2]
1 | 5-(6-(4-(4-(2,2-difluoroethyl)piperazin-1-yl)phenyl)-7H-pyrrolo[2,3-d]pyrimidin-4-yl)-2-((1-(2-hydroxyacetyl)piperidin-4-yl)oxy)benzonitrile [Example 264] | 0.91 nM | 
2 | N#Cc1cc(-c2ncnc3[nH]c(-c4ccc(N5CCOCC5)c(F)c4)nc23)ccc1OC1CCN(C(=O)CO)CC1 [Example 241, 5-(8-(3-fluoro-4-morpholinophenyl)-9H-purin-6-yl)-2-((1-(2-hydroxyacetyl)piperidin-4-yl)oxy)benzonitrile] | 2.64 nM | 1.3 nM
3 | 5-(6-(1,4-dioxaspiro[4.5]dec-7-en-8-yl)-7H-pyrrolo[2,3-d]pyrimidin-4-yl)-2-((1-(2-hydroxyacetyl)piperidin-4-yl)oxy)benzonitrile [Example 175] |  | 5.84 nM
4 | Cc1nc(-c2ccc(OC3CCOCC3)c(C#N)c2)c2nc(-c3ccc(N4CCOCC4)cc3)[nH]c2n1 [Example 214, 5-(2-methyl-8-(4-morpholinophenyl)-9H-purin-6-yl)-2-((tetrahydro-2H-pyran-4-yl)oxy)benzonitrile] | > 1000 nM | > 1000 nM
5 | 5-(6-(4-(4-(2,2-difluoroethyl)piperazin-1-yl)phenyl)-7H-pyrrolo[2,3-d]pyrimidin-4-yl)-2-(piperidin-4-yloxy)benzonitrile [Example 265] | 16.2 nM | 58.7 nM
